How the values were obtained:
MMP7 = MMP7 (Homo sapiens (Human), UniProt P09237); test: In vitro fluorescence assay of MMP7 activity; type: biochemical
Excerpt: (§1) A continuous assay is used in which the substrate is a synthetic peptide containing a fluorescent group (7-methoxycoumarin, Mca), which is quenched by energy transfer to a 2,4-dinitrophenyl group. The substrate is the peptide Mca-PQGL-(3-[2,4-dinitrophenyl]-L-2,3-diaminopropionyl)-AR-OH. When the peptide is cleaved by MMP a large increase in fluorescence is observed. The source of the enzyme for this assay is full-length, recombinant, human pro-MMP-2 expressed in Chinese Hamster Ovary (CHO) cells that is subsequently activated by an organomercurial compound, 4-aminophenyl mercuric acetate (APMA). APMA is removed through a desalting column (MMP-2 Calbiochem® catalog number PF023). The assay buffer consists of 100 mM Tris-HCl (pH 7.5), 100 mM NaCl, 10 mM CaCl2 and 10 μM human serum albumin Each well of the 96-well plates consists of a 100 μL reaction mixture consisting of assay buffer, MMP (final concentration of 0.2 nM, prepared by diluting in assay buffer), and varied concentrations of inhibitor (prepared by serially diluting a given inhibitor in DMSO in a 96-well polypropylene plate using a 10 point or 11 point dilution scheme). The enzymatic reactions are initiated by adding the substrate to a final concentration of 20 μM. The final DMSO concentration in the assay is 1.0%. The plate is incubated for 2-4 hours at room temperature and substrate cleavage is determined at room temperature with a fluorescence plate reader (excitation filter 320 and emission filter 436) on a LJL Analyst® or a Wallac Envision®.
(§2) The data is analyzed by using ActivityBase® software programs vs. 5.3 using a 4 parameter fit model equation 205 from which relative IC50's are generated. Maximum signal is calculated from wells untreated by inhibitor but having enzyme, substrate and 1.0% DMSO. Minimum signal is calculated from wells having buffer only (no enzyme), substrate, and 1.0% DMSO.
(§3) Essentially the same procedure is used for the remaining MMP assays as the MMP-2 assay, above, or as known in the art. For example, for MMP-14, the enzyme source is MMP-14 (MT1-MMP) catalytic domain produced by activation of a recombinant soluble proform of the enzyme purified from the periplasm. It consists of amino acid residues Tyr^89 to Gly^265 of mature human MT1-MMP (Calbiochem® catalog number 475935). The final concentration of each well is 0.5 nM instead of 0.2 nM as in MMP-2 assay.

MMP13 = MMP13 (Homo sapiens (Human), UniProt P45452); test: In vitro fluorescence assay of MMP13 activity; type: biochemical
Protocol: A continuous assay is used in which the substrate is a synthetic peptide containing a fluorescent group (7-methoxycoumarin, Mca), which is quenched by energy transfer to a 2,4-dinitrophenyl group. The substrate is the peptide Mca-PQGL-(3-[2,4-dinitrophenyl]-L-2,3-diaminopropionyl)-AR-OH. […] APMA is removed through a desalting column (MMP-2 Calbiochem® catalog number PF023). The assay buffer consists of 100 mM Tris-HCl (pH 7.5), 100 mM NaCl, 10 mM CaCl2 and 10 μM human serum albumin Each well of the 96-well plates consists of a 100 μL reaction mixture consisting of assay buffer, MMP (final concentration of 0.2 nM, prepared by diluting in assay buffer), and varied concentrations of inhibitor (prepared by serially diluting a given inhibitor in DMSO in a 96-well polypropylene plate using a 10 point or 11 point dilution scheme). The enzymatic reactions are initiated by adding the substrate to a final concentration of 20 μM. The final DMSO concentration in the assay is 1.0%.
as §2, §3

[1] = system: aggrecanase-cleaved fragments of aggrecan (NITEGE) in synovial lavage; test: MIA injection PD model in rats; type: in vivo, Lewis rats; conditions: twice a day, rat
Protocol: MIA Injection PD Model in Rats
The assay as described in Swearingen et al., Osteoarthritis and Cartilage 18 (2010) 1159-1166, may be employed. MIA (Sigma, catalog #I2512, sodium salt) is prepared fresh on the day of use at 3 mg in 50 ul sterile 0.9% saline. 7-8-week-old male Lewis rats are anesthetized and injected intra-articularly with MIA into the right knee (to induce endogenous aggrecanase activity and the release of aggrecan fragments into the synovial fluid) and saline in the left (contralateral) knee on day 0. […] The synovial lavage is assayed for aggrecanase-cleaved fragments of aggrecan using the NITEGE sandwich ELISA. The amount of aggrecan fragments present in the synovial lavage is determined based on a standard curve generated with aggrecanase-digested rat aggrecan. Statistical analysis is performed using Dunnett's test. Sandwich ELISA assay: For the NITEGE ELISA, the a-NITEGE monoclonal antibody is immobilized on white high binding ELISA plates (Nunc) overnight at 4 C. Following blocking, rat synovial fluid lavage samples are added to the plate and fragments with a C-terminal NITEGE sequence are captured. The captured fragments are detected using the HRP-conjugated a-HABR monoclonal antibody. The ELISA signal is measured using the Supersignal ELISA femto maximum sensitivity substrate (Pierce) and read on a Victor luminometer. The amount of aggrecan fragments present in the sample is determined based on a standard curve generated with aggrecanase-digested rat chondrosarcoma aggrecan (850 mg/ml stock diluted in antibody dilution buffer).

[2] = target: MMP-14 (MT1-MMP) catalytic domain (Homo sapiens (Human), UniProt P50281); test: In vitro fluorescence assay of MMP-14 activity; type: biochemical; conditions: read-out: MMP14 IC50
Excerpt: as §1, §2, §3

MMP3 = MMP3 (Homo sapiens (Human), UniProt P08254); test: In vitro fluorescence assay of MMP3 activity; type: biochemical
Excerpt: as §1, §2, §3

MMP8 = MMP8 (Homo sapiens (Human), UniProt P22894); test: In vitro fluorescence assay of MMP8 activity; type: biochemical
Excerpt: as §1, §2, §3

MMP12 = MMP12 (Homo sapiens (Human), UniProt P39900); test: In vitro fluorescence assay of MMP12 activity; type: biochemical
Excerpt: as §1, §2, §3

MMP-2 = MMP-2 (Homo sapiens (Human), UniProt P08253); test: In vitro fluorescence assay of MMP-2 activity; type: biochemical; conditions: read-out: MMP2 IC50
Excerpt: In Vitro Fluorescence Assay of MMP-2 Activity
as §1, §2

MMP9 = MMP9 (Homo sapiens (Human), UniProt P14780); test: In vitro fluorescence assay of MMP9 activity; type: biochemical
Excerpt: as §1, §2, §3

[3] = Example 2 compound plasma concentration in osteoarthritis dogs (LC-MS/MS); type: in vivo, Beagle dogs
Excerpt: (§4) Blood samples for baseline plasma ARGN concentrations are collected from all dogs on 30, 28, and 26 days to prior to beginning dose administration. […] The 4 age matched control dogs without OA all are assigned to the placebo treatment group.

ADAMTS-4 = ADAMTS-4 (Homo sapiens (Human), UniProt O75173); test: ADAMTS-4 AlphaScreen assay; type: biochemical; conditions: buffer
Protocol: ADAMTS-4 and ADAMTS-5 AlphaScreen Assay:
(§5) The plate is covered with aluminum foil tape and the binding is allowed to incubate overnight. The plate is then read on an AlphaScreen Fusion Alpha reader from Perkin Elmer. Data is analyzed using ActivityBase™ software (IDBS Alameda, Calif.). A similar assay is used with purified dog ADAMTS-4 enzyme.

dog ADAMTS-4 [4] = target: T1, dog ADAMTS-4 (Canis lupus familiaris, UniProt A0A8I3Q3A2); test: Dog ADAMTS-4 AlphaScreen assay; type: biochemical; conditions: purified dog ADAMTS-4 enzyme
Protocol: as §5

plasma ARGN = test: Plasma biomarker ARGN in osteoarthritis dogs; type: in vivo, Beagle dogs; conditions: OA dogs
Excerpt: Study of the Plasma Biomarker ARGN in Osteoarthritis Dogs
The objective of this study is to determine the plasma biomarker ARGN response in osteoarthritic (OA) dogs to a compound of the invention across a range of doses following daily oral administration for 21 days. Sixteen (16) adult laboratory Beagle dogs ≧8 years of age with radiographic evidence of OA in the hip joint(s) and 4 age matched control Beagle dogs without OA are enrolled in the study.
as §4

MMP1 = MMP1 (Homo sapiens (Human), UniProt P03956); test: In vitro fluorescence assay of MMP1 activity; type: biochemical
Excerpt: as §1, §2, §3

dog ADAMTS-4 [5] = target: T1, dog ADAMTS-4; test: Dog plasma shift AlphaScreen assay; type: biochemical; conditions: dog ADAMTS-4 in 25% dog plasma
Protocol: Rat and Dog Plasma Shift AlphaScreen Assay
The assay is completed in the same manner using 10 nM ADAMTS-5 instead of 2.1 nM. A similar assay is used with dog ADAMTS-4 in the presence of 25% dog plasma.

MMP3, sequence (P08254 100-477, species assumed): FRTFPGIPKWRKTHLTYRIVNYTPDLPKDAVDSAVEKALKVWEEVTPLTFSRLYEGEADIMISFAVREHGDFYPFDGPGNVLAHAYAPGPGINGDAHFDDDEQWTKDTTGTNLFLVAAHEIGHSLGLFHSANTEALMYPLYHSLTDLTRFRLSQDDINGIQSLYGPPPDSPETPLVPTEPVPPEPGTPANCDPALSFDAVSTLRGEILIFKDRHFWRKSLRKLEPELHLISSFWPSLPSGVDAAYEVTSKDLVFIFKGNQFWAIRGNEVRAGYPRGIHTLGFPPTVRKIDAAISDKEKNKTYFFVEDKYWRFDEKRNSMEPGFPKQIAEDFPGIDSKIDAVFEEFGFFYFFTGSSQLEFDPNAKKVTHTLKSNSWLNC
ADAMTS-4, sequence (O75173 213-837, species assumed): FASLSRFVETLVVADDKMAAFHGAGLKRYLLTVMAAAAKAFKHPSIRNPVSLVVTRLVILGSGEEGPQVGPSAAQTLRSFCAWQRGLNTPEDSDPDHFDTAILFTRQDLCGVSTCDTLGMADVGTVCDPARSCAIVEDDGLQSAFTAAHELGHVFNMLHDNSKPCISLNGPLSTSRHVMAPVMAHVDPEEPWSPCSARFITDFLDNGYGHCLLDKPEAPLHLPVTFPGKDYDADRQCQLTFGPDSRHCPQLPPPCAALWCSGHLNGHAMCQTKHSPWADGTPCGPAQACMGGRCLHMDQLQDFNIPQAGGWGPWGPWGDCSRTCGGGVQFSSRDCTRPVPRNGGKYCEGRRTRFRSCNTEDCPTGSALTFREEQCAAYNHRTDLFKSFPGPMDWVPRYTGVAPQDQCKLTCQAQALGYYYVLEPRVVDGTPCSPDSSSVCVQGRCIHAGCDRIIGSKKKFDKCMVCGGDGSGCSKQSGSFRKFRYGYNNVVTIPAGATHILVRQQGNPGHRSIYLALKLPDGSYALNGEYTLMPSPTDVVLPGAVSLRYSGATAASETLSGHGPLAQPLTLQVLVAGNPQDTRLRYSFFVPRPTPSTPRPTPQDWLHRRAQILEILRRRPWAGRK
MMP-2, sequence (P08253 110-660): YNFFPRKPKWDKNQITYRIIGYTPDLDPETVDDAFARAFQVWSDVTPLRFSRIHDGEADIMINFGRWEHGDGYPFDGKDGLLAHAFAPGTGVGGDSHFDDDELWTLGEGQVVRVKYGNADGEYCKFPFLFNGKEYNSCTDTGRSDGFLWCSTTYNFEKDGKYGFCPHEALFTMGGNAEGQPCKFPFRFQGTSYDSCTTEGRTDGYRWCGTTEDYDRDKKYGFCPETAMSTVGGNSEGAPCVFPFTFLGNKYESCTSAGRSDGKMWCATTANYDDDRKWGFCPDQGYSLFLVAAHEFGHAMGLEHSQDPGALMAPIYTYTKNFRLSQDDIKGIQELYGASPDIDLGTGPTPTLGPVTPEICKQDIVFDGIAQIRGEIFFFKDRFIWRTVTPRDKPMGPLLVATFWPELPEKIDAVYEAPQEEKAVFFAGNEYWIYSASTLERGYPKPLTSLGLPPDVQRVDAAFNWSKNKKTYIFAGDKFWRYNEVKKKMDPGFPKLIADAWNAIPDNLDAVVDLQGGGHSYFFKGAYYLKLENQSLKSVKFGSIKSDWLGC
MMP7, sequence (P09237 95-267, species assumed): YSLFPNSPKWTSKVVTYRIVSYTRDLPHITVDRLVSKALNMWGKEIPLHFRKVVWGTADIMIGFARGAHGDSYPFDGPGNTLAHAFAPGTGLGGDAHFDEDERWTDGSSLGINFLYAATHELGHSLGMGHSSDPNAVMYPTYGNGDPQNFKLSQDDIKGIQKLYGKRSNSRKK
MMP8, sequence (P22894 101-467, species assumed): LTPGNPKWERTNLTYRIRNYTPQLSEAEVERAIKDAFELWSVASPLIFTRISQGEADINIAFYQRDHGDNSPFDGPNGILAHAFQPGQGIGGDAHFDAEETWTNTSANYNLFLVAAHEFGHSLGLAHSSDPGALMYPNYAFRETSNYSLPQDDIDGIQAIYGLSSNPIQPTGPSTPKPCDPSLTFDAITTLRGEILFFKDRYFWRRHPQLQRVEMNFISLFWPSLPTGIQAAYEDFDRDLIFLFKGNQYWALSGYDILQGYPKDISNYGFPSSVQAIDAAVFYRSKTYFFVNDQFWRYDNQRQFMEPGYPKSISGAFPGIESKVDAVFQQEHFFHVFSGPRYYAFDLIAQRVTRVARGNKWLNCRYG
MMP12, sequence (P39900 106-470, species assumed): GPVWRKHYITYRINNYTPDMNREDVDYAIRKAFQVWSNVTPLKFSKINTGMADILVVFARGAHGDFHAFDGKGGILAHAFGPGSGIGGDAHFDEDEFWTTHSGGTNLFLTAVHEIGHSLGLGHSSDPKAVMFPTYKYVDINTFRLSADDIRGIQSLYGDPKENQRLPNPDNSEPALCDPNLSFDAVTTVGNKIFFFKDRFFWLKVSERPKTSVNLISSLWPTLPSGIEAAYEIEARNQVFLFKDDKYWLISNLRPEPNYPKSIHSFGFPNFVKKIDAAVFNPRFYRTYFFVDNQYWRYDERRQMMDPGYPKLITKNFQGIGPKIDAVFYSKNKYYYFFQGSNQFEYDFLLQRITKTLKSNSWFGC
MMP1, sequence (P03956 100-469, species assumed): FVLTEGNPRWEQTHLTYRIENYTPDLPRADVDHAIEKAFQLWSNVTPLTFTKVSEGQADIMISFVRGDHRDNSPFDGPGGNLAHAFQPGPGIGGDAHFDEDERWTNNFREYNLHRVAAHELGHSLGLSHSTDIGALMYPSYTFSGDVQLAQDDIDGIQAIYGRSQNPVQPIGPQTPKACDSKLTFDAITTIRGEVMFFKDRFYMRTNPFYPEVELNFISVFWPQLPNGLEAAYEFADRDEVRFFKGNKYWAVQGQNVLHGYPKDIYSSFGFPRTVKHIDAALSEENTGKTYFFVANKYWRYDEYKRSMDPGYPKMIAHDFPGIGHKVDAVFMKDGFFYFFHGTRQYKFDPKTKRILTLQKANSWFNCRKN
MMP9, sequence (P14780 94-707, species assumed): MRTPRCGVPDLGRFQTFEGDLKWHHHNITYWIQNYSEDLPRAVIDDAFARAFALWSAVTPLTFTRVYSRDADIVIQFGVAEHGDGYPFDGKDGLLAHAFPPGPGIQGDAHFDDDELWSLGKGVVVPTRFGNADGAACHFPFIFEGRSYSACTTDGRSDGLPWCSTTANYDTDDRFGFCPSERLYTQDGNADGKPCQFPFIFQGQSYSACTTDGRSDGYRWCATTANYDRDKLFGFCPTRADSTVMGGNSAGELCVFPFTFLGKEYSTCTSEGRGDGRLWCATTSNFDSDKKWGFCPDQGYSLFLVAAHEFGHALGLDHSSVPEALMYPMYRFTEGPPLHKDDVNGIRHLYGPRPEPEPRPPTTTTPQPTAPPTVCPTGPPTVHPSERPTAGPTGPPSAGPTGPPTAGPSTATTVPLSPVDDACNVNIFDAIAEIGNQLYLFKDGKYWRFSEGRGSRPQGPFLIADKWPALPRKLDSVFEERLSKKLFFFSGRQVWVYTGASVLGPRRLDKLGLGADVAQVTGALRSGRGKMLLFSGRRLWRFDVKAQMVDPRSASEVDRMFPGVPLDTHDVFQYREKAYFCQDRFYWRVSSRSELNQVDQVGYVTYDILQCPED
T1 sequence (A0A8I3Q3A2 1-992): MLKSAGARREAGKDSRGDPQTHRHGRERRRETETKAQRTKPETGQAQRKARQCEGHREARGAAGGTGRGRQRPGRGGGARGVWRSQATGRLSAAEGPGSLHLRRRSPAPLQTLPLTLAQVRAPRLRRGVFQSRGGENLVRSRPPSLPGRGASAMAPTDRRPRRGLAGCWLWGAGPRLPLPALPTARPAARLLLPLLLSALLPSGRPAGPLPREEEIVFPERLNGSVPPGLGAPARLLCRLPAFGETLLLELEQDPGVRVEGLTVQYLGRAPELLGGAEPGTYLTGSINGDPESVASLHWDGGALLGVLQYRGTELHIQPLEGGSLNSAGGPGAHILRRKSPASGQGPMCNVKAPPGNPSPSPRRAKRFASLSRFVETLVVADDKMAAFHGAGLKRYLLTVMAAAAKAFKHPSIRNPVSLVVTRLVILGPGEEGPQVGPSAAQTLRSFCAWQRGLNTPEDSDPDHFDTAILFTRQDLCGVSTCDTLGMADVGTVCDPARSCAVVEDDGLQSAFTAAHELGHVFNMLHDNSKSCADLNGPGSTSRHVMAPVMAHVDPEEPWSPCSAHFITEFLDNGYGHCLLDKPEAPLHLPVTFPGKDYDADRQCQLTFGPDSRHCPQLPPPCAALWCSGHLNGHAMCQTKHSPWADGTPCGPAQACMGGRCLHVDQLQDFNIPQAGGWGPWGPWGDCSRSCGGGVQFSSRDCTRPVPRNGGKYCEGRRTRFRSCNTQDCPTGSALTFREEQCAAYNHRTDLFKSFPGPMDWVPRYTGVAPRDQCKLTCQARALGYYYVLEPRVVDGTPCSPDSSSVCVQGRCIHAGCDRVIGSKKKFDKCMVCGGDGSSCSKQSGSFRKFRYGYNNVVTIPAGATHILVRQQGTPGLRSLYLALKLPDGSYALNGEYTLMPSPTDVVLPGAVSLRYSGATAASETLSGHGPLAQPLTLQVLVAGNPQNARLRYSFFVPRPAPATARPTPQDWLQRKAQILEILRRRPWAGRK

Compound	IC50 (MMP7) [µM]	IC50 (MMP13) [µM]	IC50 [2] [µM]	IC50 (MMP3) [µM]	IC50 (MMP8) [µM]	IC50 (MMP12) [µM]	IC50 (MMP-2) [µM]	IC50 (MMP9) [µM]	IC50 (ADAMTS-4) [µM]	IC50 (MMP1) [µM]	also measured
C[C@H](Cc1ccc(C(F)(F)F)cc1)C(=O)NC[C@@]1(C2CC2)NC(=O)NC1=O [Example 1, (2R)—N-[[(4R)-4-cyclopropyl-2,5-dioxo-imidazolidin-4-yl]methyl]-2-methyl-3-[4-(trifluoromethyl)phenyl]propanamide]	> 100	1.11	3.89	2.85	0.0179	0.009	1.75	12			% Inhibition ([1]; 10 MPK oral): 41.3%; MIA (aggrecan fragments in synovial lavage of MIA knee) ([1]; 10 MPK oral): 15.87; % Inhibition ([1]; 30 MPK oral): 48.2%; MIA (aggrecan fragments in synovial lavage of MIA knee) ([1]; 30 MPK oral): 14.00; % Inhibition ([1]; 100 MPK oral): 70.2%; MIA (aggrecan fragments in synovial lavage of MIA knee) ([1]; 100 MPK oral): 8.06
CC[C@H](Cc1ccc(C(F)(F)F)cc1)C(=O)NC[C@@]1(C2CC2)NC(=O)NC1=O [Example 2, (2R)—N-[[(4R)-4-cyclopropyl-2,5-dioxo-imidazolidin-4-yl]methyl]-2-[[4-(trifluoromethyl)phenyl]methyl]butanamide]	> 100	4.19	7.99	15.3	< 0.0051	0.026	0.704	0.439	0.002	0.897	plasma concentrations versus dosage ([3]; 0.1, 1, 10 mg/kg daily oral): increase with dosage in a sub-proportional manner; steady-state trough concentrations ([3]; daily oral dosing): rapidly achieved; IC50 (dog ADAMTS-4 [4]): 0.001 µM; mean Day 21 inhibition of plasma ARGN concentrations (plasma ARGN; 0.1 mg/kg daily oral): 33.8%; mean Day 21 inhibition of plasma ARGN concentrations (plasma ARGN; 1 mg/kg daily oral): 70.7%; mean Day 21 inhibition of plasma ARGN concentrations (plasma ARGN; 10 mg/kg daily oral): 80.3%; IC50 (dog ADAMTS-4 [5]): 0.326 µM
O=C1NC(=O)[C@](CNC(=O)[C@@H](Cc2ccc(C(F)(F)F)cc2)C2CC2)(C2CC2)N1 [Example 3, (2S)-2-cyclopropyl-N-[[(4R)-4-cyclopropyl-2,5-dioxo-imidazolidin-4-yl]methyl]-3-[4-(trifluoromethyl)phenyl]propanamide]	> 100	47	50.2	99.7	0.804	0.268	35	> 100		39.2	
CC(C)[C@H](Cc1ccc(C(F)(F)F)cc1)C(=O)NC[C@@]1(C2CC2)NC(=O)NC1=O [Example 4, (2S)—N-[[(4R)-4-cyclopropyl-2,5-dioxo-imidazolidin-4-yl]methyl]-3-methyl-2-[[4-(trifluoromethyl)phenyl]methyl]butanamide]	> 100	> 100	> 100	> 100	5.22	3.37	> 100	> 100	0.014	56.8	
CC(C)(Cc1ccc(C(F)(F)F)cc1)C(=O)NC[C@@]1(C2CC2)NC(=O)NC1=O [Example 5, N-[[(4R)-4-cyclopropyl-2,5-dioxoimidazolidin-4-yl]methyl]-2,2-dimethyl-3-[4-(trifluoromethyl)phenyl]propanamide]	> 100	4.81	14.9	13.2	0.054	0.071	4.65	7.59	0.007	4.55	

From US9206139B2, “Aggrecanase inhibitors” (Eli Lilly and Company, priority 2012, dated 2015)
